Reference: the supplement of paper PMC10307832

How the values were obtained:
Assay in all cases: relative viability (nuclei count vs DMSO), 5 days (fraction); higher = more cells survive
Lapatinib + Olaparib = compound: CS(=O)(=O)CCNCc1ccc(-c2ccc3ncnc(Nc4ccc(OCc5cccc(F)c5)c(Cl)c4)c3c2)o1 [Lapatinib] + O=C(c1cc(Cc2n[nH]c(=O)c3ccccc23)ccc1F)N1CCN(C(=O)C2CC2)CC1 [Olaparib] (partner 8 µM)
Method in brief: (§1)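 A single step with final 0.05% Triton X-100, 1% formaldehyde and 1 ug/ml Hoechst fixed the cells and stained nuclei 5 days after treatment. Lung cancer cell lines in 1536-well plates had been treated by pin tool the day after seeding with one drug alone or a fixed anchor-drug dose plus five library-drug doses (not always all listed) in √10 steps, and nuclei were counted on 4× images. Relative viability is the ratio of nuclei in treated wells to nuclei in vehicle wells, taken as the median of duplicate plates.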

Lapatinib + OSI-027 = compound: CS(=O)(=O)CCNCc1ccc(-c2ccc3ncnc(Nc4ccc(OCc5cccc(F)c5)c(Cl)c4)c3c2)o1 [Lapatinib] + COc1cccc2cc(-c3nc([C@H]4CC[C@H](C(=O)O)CC4)n4ncnc(N)c34)[nH]c12 [OSI-027] (partner 0.5 µM)
Method in brief: as §1

Lapatinib + Trametinib = compound: CS(=O)(=O)CCNCc1ccc(-c2ccc3ncnc(Nc4ccc(OCc5cccc(F)c5)c(Cl)c4)c3c2)o1 [Lapatinib] + CC(=O)Nc1cccc(-n2c(=O)n(C3CC3)c(=O)c3c(Nc4ccc(I)cc4F)n(C)c(=O)c(C)c32)c1 [Trametinib] (partner 0.02 µM)
Method in brief: as §1

Lapatinib + Alpelisib = compound: CS(=O)(=O)CCNCc1ccc(-c2ccc3ncnc(Nc4ccc(OCc5cccc(F)c5)c(Cl)c4)c3c2)o1 [Lapatinib] + Cc1nc(NC(=O)N2CCC[C@H]2C(N)=O)sc1-c1ccnc(C(C)(C)C(F)(F)F)c1 [Alpelisib] (partner 2 µM)
Method in brief: as §1

| Cell Line | relative viability (Lapatinib + Olaparib; first compound 0.02 µM) | relative viability (Lapatinib + Olaparib; first compound 0.06325 µM) | relative viability (Lapatinib + Olaparib; first compound 0.2 µM) | relative viability (Lapatinib + Olaparib; first compound 0.6325 µM) | relative viability (Lapatinib + Olaparib; first compound 2 µM) | relative viability (Lapatinib + OSI-027; first compound 0.02 µM) | relative viability (Lapatinib + OSI-027; first compound 0.06325 µM) | relative viability (Lapatinib + OSI-027; first compound 0.2 µM) | relative viability (Lapatinib + OSI-027; first compound 0.6325 µM) | relative viability (Lapatinib + OSI-027; first compound 2 µM) | relative viability (Lapatinib + Trametinib; first compound 0.02 µM) | relative viability (Lapatinib + Trametinib; first compound 0.06325 µM) | relative viability (Lapatinib + Trametinib; first compound 0.2 µM) | relative viability (Lapatinib + Trametinib; first compound 0.6325 µM) | relative viability (Lapatinib + Trametinib; first compound 2 µM) | relative viability (Lapatinib + Alpelisib; first compound 0.02 µM) | relative viability (Lapatinib + Alpelisib; first compound 0.06325 µM) | relative viability (Lapatinib + Alpelisib; first compound 0.2 µM) | relative viability (Lapatinib + Alpelisib; first compound 0.6325 µM) | relative viability (Lapatinib + Alpelisib; first compound 2 µM) |
| --- | --- | --- | --- | --- | --- | --- | --- | --- | --- | --- | --- | --- | --- | --- | --- | --- | --- | --- | --- | --- |
| RERF-LC-KJ | 0.934 | 0.896 | 0.947 | 0.811 | 0.682 | 0.532 | 0.344 | 0.424 | 0.401 | 0.315 | 0.854 | 0.903 | 0.758 | 0.792 | 0.642 | 0.729 | 0.463 | 0.673 | 0.655 | 0.468 |
| NCI-H2087 | 0.56 | 0.412 | 0.625 | 0.516 | 0.503 | – | 0.259 | 0.547 | 0.527 | 0.489 | 0.208 | 0.186 | 0.182 | 0.217 | 0.191 | 1.12 | 1.06 | 1.21 | 1.01 | 0.931 |
| COR-L23 | 0.329 | 0.358 | 0.33 | 0.309 | 0.275 | 0.771 | 0.651 | 0.769 | 0.721 | 0.654 | 0.408 | 0.555 | 0.68 | 0.651 | 0.551 | 0.694 | 0.602 | 0.871 | 0.752 | 0.688 |
| NCI-H2009 | 0.666 | 0.712 | 0.694 | 0.696 | 0.567 | 0.64 | 0.557 | 0.681 | 0.764 | 0.66 | 0.266 | 0.236 | 0.295 | 0.294 | 0.268 | 1.12 | 1.16 | 1.16 | 1.16 | 1.12 |
| NCI-H1944 | 0.397 | 0.389 | 0.381 | 0.354 | 0.327 | 0.28 | 0.237 | 0.356 | 0.361 | 0.31 | 0.41 | 0.35 | 0.388 | 0.322 | 0.288 | – | – | 0.645 | 0.647 | 0.488 |
| NCI-H838 | 0.773 | 0.715 | 0.771 | 0.746 | 0.575 | 0.401 | 0.256 | 0.369 | 0.383 | 0.332 | 0.609 | 0.436 | 0.575 | 0.517 | 0.483 | 1.05 | 0.88 | 1.07 | 0.967 | 0.912 |
| NCI-H2126 | 0.933 | 0.757 | 0.894 | 0.825 | 0.794 | – | – | 0.644 | 0.688 | 0.557 | 0.536 | 0.417 | 0.467 | 0.533 | 0.402 | – | 0.587 | 0.668 | 0.677 | 0.549 |
| NCI-H1975 | 0.85 | 0.771 | 0.772 | 0.76 | 0.503 | 0.699 | 0.472 | 0.494 | 0.568 | 0.446 | 0.264 | 0.282 | 0.328 | 0.384 | 0.254 | 0.662 | 0.58 | 0.537 | 0.573 | 0.462 |
